Source: publication PMC6150246, “Design, Synthesis and Preliminary Biological Evaluation of Novel Benzyl Sulfoxide 2-Indolinone Derivatives as Anticancer Agents” (Molecules : A Journal of Synthetic Chemistry and Natural …, 2017)

Biological target: tyrosine kinase
Assay: Tyrosine kinase inhibitory activity assay (self-made ELISA kit)
Format: biochemical
Conditions: tyrosine kinase tissue extract, 37 °C 30 min
Procedure: The 16 designed compounds were first evaluated for tyrosine kinase inhibitory activity using ELISA assay. Indo 5 was used as a reference compound. The kit was self-made and is a very effective and economical method for preliminary tyrosine kinase inhibitory activity evaluation.
The tyrosine kinase inhibitory activity assay was performed as described in the literature. Details of the experimental procedures are presented in Supplementary Materials associated with this article. The IC50 was calculated using GraphPad Prism Software (GraphPad Prism 5, La Jolla, CA, USA). For each concentration, at least three wells were performed to calculate the average parameter.
100μL to each well. The plate was covered with its lid, and incubated at 4℃ overnight (10-12 hours). Then it was washed with 200μL elution buffer once, and dried at 37℃ for 2 h. After that, it was washed with 10mM PBS once, dried at room temperature, and then stored at 4℃ […]
2.1.5. Groups: Blank control: 60μL 1×tyrosine kinase buffer + 50μL 1×tyrosine kinase buffer containing ATP; Negative control: 10μL 1×tyrosine kinase buffer + 50μL 1×tyrosine kinase buffer containing tissue extract + 50μL 1×tyrosine kinase buffer containing ATP; Positive control: 10μL 1×tyrosine kinase buffer containing L029 + 50μL 1×tyrosine kinase buffer containing tissue extract + 50μL 1×tyrosine kinase buffer containing ATP; Vehicle control: 10μL 1×tyrosine kinase buffer containing DMSO + 50μL 1×tyrosine kinase buffer containing tissue extract + 50μL 1×tyrosine kinase buffer containing ATP; Compounds to be screened: 10μL 1×tyrosine kinase buffer containing compounds to be tested + 50μL 1× tyrosine kinase buffer containing tissue extract + 50μL 1×tyrosine kinase buffer containing ATP. (First, L029 and the compounds were allowed to interact with the tyrosine kinase tissue extract at room temperature for 10 min in advance, and did the same to the Blank control and the Vehicle control, then 50μL 1×tyrosine kinase buffer containing ATP was added to […]
2.1.6. Tyrosine kinase inhibitory activity assay: 1×tyrosine kinase buffer was prepared by evenly mixing 1 mL 10× tyrosine kinase buffer with 9 mL DDW. The tissue extract was diluted with 1×tyrosine kinase buffer appropriately, mixed with it gently and evenly, and placed on ice. ATP stock solution was mixed with 1×tyrosine kinase buffer at the final concentration of 3mM , and placed on ice. The microplate was added in respective wells with the groups formulated as above, covered with the lid, and incubated at 37℃ for 30 min. The microplate was washed with 200μL elution buffer and tapped until the residual buffer was removed, and this procedure was repeated for five times. To each well, 100μL antibody diluent (antibody elution buffer diluted at a ratio of 1:2000) was added. The microplate was covered with the lid, and incubated at room temperature for 30 min. OPD solution was prepared by addition of 4 mg OPD into a mixture of 4.86 mL 0.1 mol/L citric acid solution and 5.14 mL 0.2 mol/L Na2HPO4 solution, followed by addition of 50μL 30% H202 to allow for complete dissolution, and then was protected from light. The antibody solution was […]
removed. The microplate was washed with 200μL elution buffer and tapped until the residual buffer was removed, and this procedure was repeated for five times. 100μL freshly prepared OPD was added, and reacted at room temperature light tight for precisely 7 min. Negative […]
100μL 2.5 N H2SO4 was added to terminate the reaction. OD
2.1.7. Sample screening: Samples were screened preliminarily by using triplicate assay. The effect of the samples on tyrosine kinase inhibitory activity was tested, and the inhibition rate was calculated. Inhibition rate (%)=(ODnegative control – ODsample) / (ODnegative control* – ODblank) × 100%; *While calculating inhibition rate of positive drugs, ODnegative control in the equation was replaced with ODvehicle control to exclude the influence of DMSO on tyrosine kinase activity. […]
2. S. Praveen Kumar, Jiri Gut, Rita C. […]

IC50 [µM] | Compound
3.74 ± 0.19 | O=C1Nc2ccccc2/C1=C/[S+]([O-])Cc1ccccc1F (stereo not shown) [Compound 6b, (Z)-3-(((2-Fluorobenzyl)sulfinyl)methylene)indolin-2-one]
9.32 ± 0.66 | O=C1Nc2ccccc2/C1=C/[S+]([O-])Cc1cccc(F)c1 (stereo not shown) [Compound 6c, (Z)-3-(((3-Fluorobenzyl)sulfinyl)methylene)indolin-2-one]
9.3 ± 0.47 | O=C1Nc2ccccc2/C1=C/[S+]([O-])Cc1ccc(F)cc1 (stereo not shown) [Compound 6d, (Z)-3-(((4-Fluorobenzyl)sulfinyl)methylene)indolin-2-one]
5.09 ± 0.12 | O=C1Nc2ccccc2/C1=C/[S+]([O-])Cc1ccccc1Cl (stereo not shown) [Compound 6e, (Z)-3-(((2-Chlorobenzyl)sulfinyl)methylene)indolin-2-one]

Tested on: human cervical carcinoma cell line HeLa
Assay: MTS cytotoxicity assay, HeLa
Format: cell-based
Conditions: Homo sapiens, HeLa, 48 h treatment
Description: (§1) To investigate the relationship between anticancer activity and tyrosine kinase inhibitory activity, these compounds were further evaluated for in vitro cytotoxicity against five cancer cell lines (human cervical carcinoma cell line HeLa, human breast carcinoma cell line MCF-7, human liver carcinoma cell line HepG2, human tongue carcinoma cell line SCC-15, and human lung carcinoma A549) using MTS assay. Indo 5 was also used as a reference compound.
(§2) The five types of human cancer cell lines (HeLa, HepG2, MCF-7, SCC-15, and A549) were cultured aseptically using Dulbecco’s modified Eagle’s medium (DMEM) supplemented with 10% (v/v) fetal bovine serum (FBS) and penicillin (100 units mL^−1)/streptomycin ([…]), at pH 7.2 and 5% CO2 humidified atmosphere at 37 °C. After attaining 80% confluence, the cells were trypsinized with 0.25 trypsin–EDTA and diluted with media to a fixed number of cells.
(§3) Cytotoxic activity was assessed using the standard MTS method by using triplicate assay. The cells were seeded into 96-well plates containing the medium at the density of 4000–6000 cells/mL (100 μL/well). The compounds were dissolved in DMSO to the concentration of 100 mM and diluted in a culture medium to the concentrations needed. After 24 h, the cultured cells were treated with concentrations of synthesized compounds (3.125 μM to 100 μM for tumor cells) for 48 h. After 48 h of incubation, the supernatant was replaced by fresh medium (100 μL/well) and 10 μL MTS reagent ([3-(4,5-dimethylthiazol-2-yl)-5-(3-carboxymethoxyphenyl)-2-(4-sulfophenyl)-2H-tetrazolium, inner salt]) was added to each well. The plate was further incubated for 3 h at 37 °C in 5% CO2. The optical absorbance in individual wells was determined at 492 nm using a microplate reader. The inhibition rates were calculated by the following formula: Inhibition rate (%) = (ODnegative control − ODsample)/(ODnegative control − ODblank) × 100%
(§4) IC50 was calculated using GraphPad Prism Software (GraphPad Prism 5, La Jolla, CA, USA). For each concentration, at least three wells were performed to calculate the average parameter.

Compound | IC50 [µM]
O=C1Nc2ccccc2/C1=C/[S+]([O-])Cc1ccccc1F (stereo not shown) [Compound 6b, (Z)-3-(((2-Fluorobenzyl)sulfinyl)methylene)indolin-2-one] | 14 ± 0.27
O=C1Nc2ccccc2/C1=C/[S+]([O-])Cc1cccc(F)c1 (stereo not shown) [Compound 6c, (Z)-3-(((3-Fluorobenzyl)sulfinyl)methylene)indolin-2-one] | 24.4 ± 0.54
O=C1Nc2ccccc2/C1=C/[S+]([O-])Cc1ccc(F)cc1 (stereo not shown) [Compound 6d, (Z)-3-(((4-Fluorobenzyl)sulfinyl)methylene)indolin-2-one] | 25 ± 0.68
O=C1Nc2ccccc2/C1=C/[S+]([O-])Cc1ccccc1Cl (stereo not shown) [Compound 6e, (Z)-3-(((2-Chlorobenzyl)sulfinyl)methylene)indolin-2-one] | 70.9 ± 1.17

Same assay, conditions: Indo 5 as reference

Compound | activity against the HeLa cell line, in words
O=C1Nc2ccccc2/C1=C/[S+]([O-])Cc1ccccc1F (stereo not shown) [Compound 6b, (Z)-3-(((2-Fluorobenzyl)sulfinyl)methylene)indolin-2-one] | stronger activity than Indo 5

Tested on: human breast carcinoma cell line MCF-7
Assay: MTS cytotoxicity assay, MCF-7
Format: cell-based
Conditions: not given
Description: as §1, §2, §3, §4

Compound | activity against the MCF-7 cell line, in words
O=C1Nc2ccccc2/C1=C/[S+]([O-])Cc1cccc(F)c1 (stereo not shown) [Compound 6c, (Z)-3-(((3-Fluorobenzyl)sulfinyl)methylene)indolin-2-one] | good antitumor activity

Same assay, conditions: Homo sapiens, MCF7, 48 h treatment

Compound | IC50 [µM]
O=C1Nc2ccccc2/C1=C/[S+]([O-])Cc1ccccc1F (stereo not shown) [Compound 6b, (Z)-3-(((2-Fluorobenzyl)sulfinyl)methylene)indolin-2-one] | 49.1 ± 1.08
O=C1Nc2ccccc2/C1=C/[S+]([O-])Cc1cccc(F)c1 (stereo not shown) [Compound 6c, (Z)-3-(((3-Fluorobenzyl)sulfinyl)methylene)indolin-2-one] | 31.5 ± 0.82
O=C1Nc2ccccc2/C1=C/[S+]([O-])Cc1ccc(F)cc1 (stereo not shown) [Compound 6d, (Z)-3-(((4-Fluorobenzyl)sulfinyl)methylene)indolin-2-one] | 49.12 ± 0.29
O=C1Nc2ccccc2/C1=C/[S+]([O-])Cc1ccccc1Cl (stereo not shown) [Compound 6e, (Z)-3-(((2-Chlorobenzyl)sulfinyl)methylene)indolin-2-one] | > 100

Tested on: human liver carcinoma cell line HepG2
Assay: MTS cytotoxicity assay, HepG2
Format: cell-based
Conditions: not given
Description: as §1, §2, §3, §4

Compound | activity against the HepG2 cell line, in words
O=C1Nc2ccccc2/C1=C/[S+]([O-])Cc1ccc(F)cc1 (stereo not shown) [Compound 6d, (Z)-3-(((4-Fluorobenzyl)sulfinyl)methylene)indolin-2-one] | considerable cytotoxic activity

Same assay, conditions: Homo sapiens, HepG2, 48 h treatment

Compound | IC50 [µM]
O=C1Nc2ccccc2/C1=C/[S+]([O-])Cc1ccccc1F (stereo not shown) [Compound 6b, (Z)-3-(((2-Fluorobenzyl)sulfinyl)methylene)indolin-2-one] | 47.8 ± 1.47
O=C1Nc2ccccc2/C1=C/[S+]([O-])Cc1cccc(F)c1 (stereo not shown) [Compound 6c, (Z)-3-(((3-Fluorobenzyl)sulfinyl)methylene)indolin-2-one] | 42 ± 0.7
O=C1Nc2ccccc2/C1=C/[S+]([O-])Cc1ccc(F)cc1 (stereo not shown) [Compound 6d, (Z)-3-(((4-Fluorobenzyl)sulfinyl)methylene)indolin-2-one] | 36.2 ± 0.53
O=C1Nc2ccccc2/C1=C/[S+]([O-])Cc1ccccc1Cl (stereo not shown) [Compound 6e, (Z)-3-(((2-Chlorobenzyl)sulfinyl)methylene)indolin-2-one] | 96.83 ± 0.95

Tested on: human tongue carcinoma cell line SCC-15
Assay: MTS cytotoxicity assay, SCC-15
Format: cell-based
Conditions: Homo sapiens, SCC-15, 48 h treatment
Description: as §1, §2, §3, §4

Compound | IC50 [µM]
O=C1Nc2ccccc2/C1=C/[S+]([O-])Cc1ccccc1F (stereo not shown) [Compound 6b, (Z)-3-(((2-Fluorobenzyl)sulfinyl)methylene)indolin-2-one] | > 100
O=C1Nc2ccccc2/C1=C/[S+]([O-])Cc1cccc(F)c1 (stereo not shown) [Compound 6c, (Z)-3-(((3-Fluorobenzyl)sulfinyl)methylene)indolin-2-one] | 49.9 ± 0.93
O=C1Nc2ccccc2/C1=C/[S+]([O-])Cc1ccc(F)cc1 (stereo not shown) [Compound 6d, (Z)-3-(((4-Fluorobenzyl)sulfinyl)methylene)indolin-2-one] | 65 ± 1.47
O=C1Nc2ccccc2/C1=C/[S+]([O-])Cc1ccccc1Cl (stereo not shown) [Compound 6e, (Z)-3-(((2-Chlorobenzyl)sulfinyl)methylene)indolin-2-one] | > 100

Tested on: human lung carcinoma A549
Assay: MTS cytotoxicity assay, A549
Format: cell-based
Conditions: Homo sapiens, A549, 48 h treatment
Description: as §1, §2, §3, §4

Compound | IC50 [µM]
O=C1Nc2ccccc2/C1=C/[S+]([O-])Cc1ccccc1F (stereo not shown) [Compound 6b, (Z)-3-(((2-Fluorobenzyl)sulfinyl)methylene)indolin-2-one] | > 100
O=C1Nc2ccccc2/C1=C/[S+]([O-])Cc1cccc(F)c1 (stereo not shown) [Compound 6c, (Z)-3-(((3-Fluorobenzyl)sulfinyl)methylene)indolin-2-one] | > 100
O=C1Nc2ccccc2/C1=C/[S+]([O-])Cc1ccc(F)cc1 (stereo not shown) [Compound 6d, (Z)-3-(((4-Fluorobenzyl)sulfinyl)methylene)indolin-2-one] | 90.3 ± 2.14
O=C1Nc2ccccc2/C1=C/[S+]([O-])Cc1ccccc1Cl (stereo not shown) [Compound 6e, (Z)-3-(((2-Chlorobenzyl)sulfinyl)methylene)indolin-2-one] | > 100

Tested on: not given
Assay: not given
Conditions: not given

melting point [°C] | Compound
183 to 184 | O=C1Nc2ccccc2/C1=C/[S+]([O-])Cc1ccccc1F (stereo not shown) [Compound 6b, (Z)-3-(((2-Fluorobenzyl)sulfinyl)methylene)indolin-2-one]
186 to 187 | O=C1Nc2ccccc2/C1=C/[S+]([O-])Cc1cccc(F)c1 (stereo not shown) [Compound 6c, (Z)-3-(((3-Fluorobenzyl)sulfinyl)methylene)indolin-2-one]
193 to 194 | O=C1Nc2ccccc2/C1=C/[S+]([O-])Cc1ccc(F)cc1 (stereo not shown) [Compound 6d, (Z)-3-(((4-Fluorobenzyl)sulfinyl)methylene)indolin-2-one]
202 to 203 | O=C1Nc2ccccc2/C1=C/[S+]([O-])Cc1ccccc1Cl (stereo not shown) [Compound 6e, (Z)-3-(((2-Chlorobenzyl)sulfinyl)methylene)indolin-2-one]
